From patent publication US20020037327A1, “Treatment for cancer and compounds for use therein” (priority 1997, published 2002) come the findings set out here.

Data set [1] has as its system HUV-EC-C human umbilical cord vein normal endothelial cells. The experiment in a line: In vitro percent cell survival, crystal violet assay, normal endothelial cells (control). It counts as cell-based. Conditions: 48 hours. As for the experimental part:
(§1) Three compounds of the present invention, specifically, bismuth iodiscorbate, potassium iodiscorbate, and zinc iodiscorbate, were tested in vitro on both tumorous and normal human cells. Three cell lines were obtained through the American Type Culture Collection (Rockville, Maryland). The first cell line, designated HUV-EC-C, consisted of human umbilical cord vein normal endothelial cells. These noncancerous cells were used as a control. The second cell line, MCF-7, consisted of breast carcinoma cells. The third cell line, ME-180, consisted of uterine cervix carcinoma cells.
(§2) The data shown in FIGS. 5-7 were derived by the following steps. HUV-EC-C was cultured in a solution of 90% F12 medium (GIBCO-BRL, Grand Island, N.Y.) and 10% fetal bovine serum (Hyclone, Logan, Utah) with 100 μg/ml heparin and 30 μg/ml ECGF (endothelial cell growth factor; Sigma Chemical Co., St. Louis, Mo.). MCF-7 and ME-180 were grown in a solution of 90% minimal essential medium (GIBCO-BRL) and 10% fetal bovine serum (Hyclone). The cells were grown to approximately 90% confluence in T25 cell culture flasks (Falcon-Becton Dickinson Labware, Franklin Lakes, N.J.) in a 37° C. humidified incubator in the presence of 5% C02−95% air.
Flasks were removed from the incubator and placed in a sterile laminar flow hood. […] The cell density in the hemacytometer was determined by counting cells visible by microscopy. […]

In data set [2] the test system is ME-180 uterine cervix carcinoma cells. The experiment in a line: In vitro percent cell survival, crystal violet assay, uterine cervix carcinoma cells. It counts as cell-based, human. Conditions: 48 hours; for survival of human cervical carcinoma cells (ME-180): concentration not given. As for the experimental part: as §1, §2
(§3) Flasks were removed from the incubator and placed in a sterile laminar flow hood. All cell manipulation procedures were performed in this sterile hood. The flasks were rinsed in 5 ml of sterile phosphate-buffered saline (PBS; Sigma) and the monolayer of cells was released from the flask by adding 5 ml of 1X trypsin-EDTA (Sigma) in PBS. The flask was capped and placed back in the incubator for 10 minutes. The flasks were removed from the incubator, and cells plus trypsin-EDTA solution were transferred to a 15 ml centrifuge tube (Falcon) and 5 ml of cell growth medium was added. The tubes were centrifuged at 500 g for 10 minutes at room temperature. The tubes then were placed back in the hood and supernatant (top liquid) was removed with a sterile pipette (Falcon). […] The cell density in the hemacytometer was determined by counting cells visible by microscopy. […]

The nature of data set [3]: Water solubility of the prepared compound. It counts as physicochemical. As for the experimental part: Bismuth iodiscorbate was prepared by dissolving 58 g of concentrated hydriodic acid (56.1 weight-percent) into 350 mls of water. Next, 5 g of 0.0085 molar bismuth (III) iodide was crushed in a mortar, and then dissolved in the solution. Next, 2.3 g of 0.0085 molar strontium hydroxide octahydrate was stirred into the solution, followed by the addition of 4.5 g of 0.026 molar L-ascorbic acid. The mixture was stirred for three hours, then stripped to dryness on a rotary evaporator. The residue then was redissolved in 500 ml water and filtered, and again stripped on a rotary evaporator. This process assisted in the removal of excess hydriodic acid. The residue again was dissolved in 500 ml of water, filtered, and stripped to dryness on a rotary evaporator. An orange solid then was removed from the flask and bottled. This procedure yielded 9.1 g of what is designated as SrBiI2[ascorbate]3. This compound was water soluble.
Potassium iodiscorbate was prepared by adding 6.5 g of 0.12 molar potassium hydroxide and 16.0 g of 0.06 molar strontium hydroxide octahydrate to 500 ml water in a 1000-ml beaker, resulting in a white, cloudy solution. The mixture was stirred for about 2 hours. Next, 13.0 g of 0.06 molar hydriodic acid (56 weight-percent) was added, and the mixture was stirred for three hours. Next, […] of 0.18 molar L-ascorbic acid was added, turning the mixture clear in about 5 minutes. The mixture then was stirred for another 0.5 hour. The water was removed under vacuo, and the residue dried under vacuum for about 8 hours. The solids were removed from the flask and bottles. The structure is designated as [ascorbate]2SrK[ascorbate]KI. This compound also was water soluble.
Zinc iodiscorbate was prepared by adding 4.0 g of 0.05 molar zinc oxide and 13.3 g of 0.05 molar strontium hydroxide octahydrate to 500 ml of distilled water, resulting in a white suspension. The mixture then was treated with 11.2 g of 0.05 molar concentrated hydriodic acid and stirred for two hours. A white suspension still remained. […]

The subject of a further data set is mice. The experiment in a line: In vivo toxicology study in mice. As for the experimental part:
A toxicology study also was performed. Specifically, the toxicology of potassium iodiscorbate was evaluated through in vivo tests on mice. Potassium iodiscorbate was prepared as a stock solution of 175 mg/ml in saline and administered to mice. Injections consisted of a volume not exceeding 0.1 ml administered through the tail vein (intravenously), or a volume not exceeding 0.2 ml (by an intraperitoneal route). Doses up to 1000 mg/kg (intraperitoneal injection) and 500 mg/kg (intravenous injection) caused no apparent toxicity. This dose should permit use of the compounds of the present invention in concentrations (refer to FIGS. 5-7) that approximate those necessary for selective inhibition of malignant cell growth.

Data set [4] relates to MCF-7 breast carcinoma cells. The experiment in a line: In vitro percent cell survival, crystal violet assay, breast carcinoma cells. It counts as cell-based, human. The note with it: 48 hours. As for the experimental part:
as §1, §2, §3

Data set [5] deals with cells at high density (near confluence in culture dishes). The experiment in a line: Treatment of cells at high density (near confluence). It counts as cell-based, human. Conditions: 400 μg/ml. An excerpt:
FIG. 5 depicts percent cell survival against various concentrations of potassium iodiscorbate.

Read-outs that look alike come from different tables or passages of the source.

Potassium iodiscorbate: in data set [1] (any concentration tested), the “growth of normal human endothelial cells (HUV-EC-C)” value is “did not affect the growth”. For the same substance, in data set [2], the “survival of human cervical carcinoma cells (ME-180)” value is listed as “reduced dramatically the survival”. The solubility in water result in data set [3] (product as prepared) was “water soluble”. Besides, the “doses that caused no apparent toxicity” value with mice (intraperitoneal injection) is reported as “up to 1000 mg/kg”; in the data set with mice (intravenous injection (tail vein)) it was at most 500 mg/kg. Besides, the “survival of breast carcinoma cells (MCF-7)” value in data set [4] (concentrations greater than 100 μg/ml) is on record as “reducing dramatically the survival”. For the same substance, the “effect on cells at high density” value in data set [5] is “little effect”.

For the substance Bismuth iodiscorbate, in data set [2], the “survival of human cervical carcinoma cells (ME-180)” value was “effective in reducing the survival”. The solubility in water result in data set [3] is on record as “water soluble”. Besides, the “survival of human breast cancer cells (MCF-7)” value in data set [4] (concentration not given) is recorded as “effective in reducing the survival”.

Take Zinc iodiscorbate: the “normal cell growth (HUV-EC-C)” value in data set [1] (about 80-100 μg/ml) is on record as “without serious reduction of normal cell growth”. Besides, in data set [2] (about 80-100 μg/ml), the “survival of cervical carcinoma cells (ME-180) with respect to normal cell growth” value is given as “reduced dramatically”. Also, the solubility in water result in data set [3] (product as prepared) was “water soluble”. Also, the “survival of breast carcinoma cells (MCF-7) with respect to normal cell growth” value in data set [4] (about 80-100 μg/ml) is “reduced dramatically”.
